Results: ChEMBL document CHEMBL5576105, “Synthesis and biological evaluation of O4'-benzyl-hispidol derivatives and analogs as dual monoamine oxidase-B inhibitors and anti-neuroinflammatory agents” (Bioorg Med Chem, 2024)
The source made the active and inactive calls. No cut-off for these calls is given here.

Key:
[1] = organism: Homo sapiens; experiment: Selectivity index, ratio of IC50 for inhibition of human recombinant MAO-A to IC50 for inhibition of human recombinant MAO-B expressed in baculovirus-infected BTI cells
[2] = test system: BV-2; experiment: Cytotoxicity against mouse BV-2 cells assessed as effect on cell viability upto 10 uM; assay type: toxicity, cell-based; details: bv-2, 10 µM
[3] = target: T1, Amine oxidase [flavin-containing] B (Homo sapiens, UniProt P27338); experiment: Inhibition of human recombinant MAO-B expressed in baculovirus-infected BTI cells using benzylamine as substrate preincubated with enzyme for 15 mins followed by substrate addition and measured after 20 mins by Amplex Red reagent based fluorescence analysis
T1 sequence (P27338 whole entry): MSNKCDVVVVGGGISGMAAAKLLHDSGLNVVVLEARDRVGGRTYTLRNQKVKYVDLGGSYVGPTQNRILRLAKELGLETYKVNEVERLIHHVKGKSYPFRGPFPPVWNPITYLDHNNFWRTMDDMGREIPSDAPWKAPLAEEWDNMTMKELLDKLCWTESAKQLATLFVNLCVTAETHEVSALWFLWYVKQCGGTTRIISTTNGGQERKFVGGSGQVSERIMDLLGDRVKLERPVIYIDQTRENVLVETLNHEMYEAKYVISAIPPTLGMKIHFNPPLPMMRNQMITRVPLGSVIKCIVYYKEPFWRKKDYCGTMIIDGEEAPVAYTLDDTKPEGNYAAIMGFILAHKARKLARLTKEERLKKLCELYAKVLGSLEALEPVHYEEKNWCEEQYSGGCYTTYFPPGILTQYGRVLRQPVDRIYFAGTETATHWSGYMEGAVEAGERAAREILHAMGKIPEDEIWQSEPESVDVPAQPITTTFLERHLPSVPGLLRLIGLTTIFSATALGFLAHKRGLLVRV

[4] = target: T1, Amine oxidase [flavin-containing] B; experiment: Inhibition of human recombinant MAO-B expressed in baculovirus-infected BTI cells at 10 uM using benzylamine as substrate preincubated with enzyme for 15 mins followed by substrate addition and measured after 20 mins by Amplex Red reagent based fluorescence analysis; details: time 35 min
[5] = target: T2, Amine oxidase [flavin-containing] A (Homo sapiens, UniProt P21397); experiment: Inhibition of human recombinant MAO-A using p-tyramine as substrate preincubated with enzyme for 15 mins followed by substrate addition and measured after 20 mins by Amplex Red reagent based fluorescence analysis
T2 sequence (P21397 whole entry): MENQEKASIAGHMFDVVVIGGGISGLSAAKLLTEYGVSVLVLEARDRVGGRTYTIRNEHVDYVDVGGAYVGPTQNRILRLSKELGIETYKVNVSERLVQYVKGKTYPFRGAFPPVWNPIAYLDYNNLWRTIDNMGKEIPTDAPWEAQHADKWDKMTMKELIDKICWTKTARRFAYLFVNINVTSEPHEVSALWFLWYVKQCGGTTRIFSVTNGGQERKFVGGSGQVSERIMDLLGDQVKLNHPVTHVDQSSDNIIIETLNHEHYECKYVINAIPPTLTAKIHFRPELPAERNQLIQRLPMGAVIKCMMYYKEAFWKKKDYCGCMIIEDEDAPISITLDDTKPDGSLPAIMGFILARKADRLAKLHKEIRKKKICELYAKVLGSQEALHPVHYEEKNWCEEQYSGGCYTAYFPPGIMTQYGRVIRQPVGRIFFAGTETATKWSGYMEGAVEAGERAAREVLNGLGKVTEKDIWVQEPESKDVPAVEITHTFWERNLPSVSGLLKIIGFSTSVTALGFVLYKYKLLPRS

[6] = test system: MAO-B; experiment: Safety ratio of cytotoxicity against mouse BV-2 cells to IC50 for inhibition of human recombinant MAO-B expressed in baculovirus-infected BTI cells; assay type: toxicity
[7] = test system: BV-2; experiment: Anti-neuroinflammatory activity against mouse BV-2 cells assessed as suppression of LPS-induced PGE2 production; assay type: functional, cell-based; details: dose 5-10 µM
[8] = test system: BV-2; experiment: Anti-neuroinflammatory activity against mouse BV-2 cells assessed as suppression of LPS-induced NO production at 3 uM; assay type: functional, cell-based
[9] = test system: BV-2; experiment: Anti-neuroinflammatory activity against mouse BV-2 cells assessed as suppression of LPS-induced NO production at 1 uM; assay type: functional, cell-based
[10] = test system: BV-2; experiment: Anti-neuroinflammatory activity against mouse BV-2 cells assessed as suppression of LPS-induced PGE2 production at 10 uM; assay type: functional, cell-based
[11] = test system: BV-2; experiment: Anti-neuroinflammatory activity against mouse BV-2 cells assessed as suppression of LPS-induced NO production; assay type: functional, cell-based
[12] = test system: BV-2; experiment: Cytotoxicity against mouse BV-2 cells assessed as effect on cell viability at 30 uM; assay type: toxicity, cell-based; details: bv-2, 30 µM
[13] = test system: BV-2; experiment: Anti-neuroinflammatory activity against mouse BV-2 cells assessed as suppression of LPS-induced PGE2 production at 5 to 10 uM; assay type: functional, cell-based; details: dose 5-10 µM
[14] = target: T1, Amine oxidase [flavin-containing] B; experiment: Irreversible inhibition of MAO-B (unknown origin) measured after drug wash-out
[15] = test system: BV-2; experiment: Anti-neuroinflammatory activity against mouse BV-2 cells assessed as suppression of LPS-induced NO production at 10 uM; assay type: functional, cell-based

SMILES	IC50 [3] [µM]	inhibition at 10 µM [4] [%]	IC50 [5] [µM]	Ratio IC50 [1]	other results
O=C1/C(=C/c2cccc(OCc3cccc(F)c3)c2)Oc2cc(O)ccc21		55.1			
COc1cccc(COc2cccc(/C=C3\Oc4cc(O)ccc4C3=O)c2)c1	1.06	70.1	> 30	> 28.4	
O=C1/C(=C/c2cccc(OCc3ccccc3)c2)Oc2cc(O)ccc21	1.11	77.8	> 100	> 89.8	
COc1ccc(/C=C2\Oc3cc(O)ccc3C2=O)c(OC)c1OC			> 100	> 583	
O=C1/C(=C/c2cccc(OCc3cccc([N+](=O)[O-])c3)c2)Oc2cc(O)ccc21		33.9			
O=C1/C(=C/c2cccc(OCc3ccccc3Br)c2)Oc2cc(O)ccc21		36			
O=C1/C(=C/c2cccc(OCc3ccc(F)cc3)c2)Oc2cc(O)ccc21	2.37	60.7	> 100	> 42.2	
O=C1/C(=C/c2cccc(OCc3cccc(Br)c3)c2)Oc2cc(O)ccc21	2.02	62.7	> 100	> 49.6	
O=C1/C(=C/c2cccc(OCc3ccccc3F)c2)Oc2cc(O)ccc21	0.95	73.9	> 100	> 106	
O=C1/C(=C/c2cccc(OCc3ccccc3Cl)c2)Oc2cc(O)ccc21		41.7			

Second part, led by results:

IC50 [3] [µM]	inhibition at 10 µM [4] [%]	IC50 [5] [µM]	SMILES	Ratio IC50 [1]	other results
0.95	67.9	> 100	O=C1/C(=C/c2ccc(OCc3cccc(Br)c3)cc2)Oc2cc(O)ccc21	> 106	Activity [2]: Non-Toxic; selectivity ratio [6]: 10.6
	41.1		O=C1/C(=C/c2ccc(OCc3ccc(Br)cc3)cc2)Oc2cc(O)ccc21		
1.91	61.7	> 100	O=C1/C(=C/c2cccc(OCc3cccc(Cl)c3)c2)Oc2cc(O)ccc21	> 52.3	
	48.5		O=C1/C(=C/c2ccc(OCc3cccc([N+](=O)[O-])c3)cc2)Oc2cc(O)ccc21		
0.44	81.7	> 100	O=C1/C(=C/c2ccc(OCc3ccccc3Br)cc2)Oc2cc(O)ccc21	> 227	selectivity ratio [6]: > 6
	55.3		O=C1/C(=C/c2ccc(OCc3cccc(F)c3)cc2)Oc2cc(O)ccc21		
0.76	74.2	> 100	O=C1/C(=C/c2ccc(OCc3ccccc3F)cc2)Oc2cc(O)ccc21	> 131	Activity [2]: Non-Toxic; selectivity ratio [6]: > 13.1
1.81	70.7	> 100	O=C1/C(=C/c2cccc(OCc3ccc(Cl)cc3)c2)Oc2cc(O)ccc21	> 55.2	
	59		O=C1/C(=C/c2ccc(OCc3cccc(Cl)c3)cc2)Oc2cc(O)ccc21		
1	68.2	> 100	O=C1/C(=C/c2ccc(OCc3ccc(F)cc3)cc2)Oc2cc(O)ccc21	> 100	Activity [7]: Dose-Dependent Effect; Activity [8]: Active; Activity [2]: Non-Toxic; Activity [9]: inactive; selectivity ratio [6]: > 30; Activity [10]: Active; Activity [11]: Dose-Dependent Effect; Activity [12]: Non-Toxic
0.38	81.3	> 100	O=C1/C(=C/c2ccc(OCc3ccccc3Cl)cc2)Oc2cc(O)ccc21	> 264	Activity [13]: Active; Activity [8]: Active; Activity [2]: Non-Toxic; Activity [9]: inactive; inhibition (INH) [14]: Active; selectivity ratio [6]: > 27; Activity [11]: Dose-Dependent Effect
1.67	69.6	> 100	O=C1/C(=C/c2cccc(OCc3ccc(Br)cc3)c2)Oc2cc(O)ccc21	> 59.9	
	59.7		COc1cccc(COc2ccc(/C=C3\Oc4cc(O)ccc4C3=O)cc2)c1		
0.72	86.7	> 100	O=C1/C(=C/c2ccc(OCc3ccccc3)cc2)Oc2cc(O)ccc21	> 138	Activity [13]: Active; Activity [7]: Dose-Dependent Effect; Activity [2]: Non-Toxic; selectivity ratio [6]: > 41.6; Activity [11]: Dose-Dependent Effect; Activity [15]: Active; Activity [12]: Non-Toxic
	35.6		O=C1/C(=C/c2ccc(OCc3ccc(Cl)cc3)cc2)Oc2cc(O)ccc21		
